Measured values: the supplement of paper PMC8837787

System: Saccharomyces cerevisiae ABC16-Green Monster
Assay: growth inhibition at single dose (up to 150 µM), below the 70% cut-off for dose-response; higher = more potent
Details: 18 h; 30 °C; YPD
Summary of the method: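 Percent growth inhibition is the reported value. Drug-sensitive S. cerevisiae ABC16-Green Monster cultures in log phase (OD600 0.1–0.2), 200 µl per well in 96-well plates, received each library compound once at 150 µM in biological duplicates, with untreated cultures run alongside. Growth was followed by OD600 at 0 h and after 18 h at 30 °C. Dose-response was not done for compounds below 70% in both replicates.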

| SMILES | growth inhibition at single dose [%] |
| --- | --- |
| Cc1cc(C)n2nc(C(=O)Nc3cc(C(F)(F)F)ccc3N3CCOCC3)nc2n1 | < 70 |
| Cc1ccc(NC(=O)c2cnn(C(C)(C)C)c2C)cc1F | < 70 |
| COCc1nn2c3c(nnc2c1-c1ccccc1)C(=O)CC(c1ccccc1)C3 (configuration not stated) | < 70 |
| COc1ccc(C(=O)C(CCC(CNC(C)(C)C)C(=O)c2ccc(OC)cc2)CNC(C)(C)C)cc1 (configuration not stated) | < 70 |
| C[C@]1(O)C[C@@H](c2nc(-c3ccc4ccc(-c5ccccc5)nc4c3)c3c(N)nccn32)C1 | < 70 |
| COc1cc(NC(=O)Cc2nn(C)c(=O)c3ccccc23)ccc1Cl | < 70 |
| O=C(NC1CCN(c2nccc(C(F)(F)F)n2)CC1)c1ccco1 | < 70 |
| CC(C)c1ncc(-c2ccncc2)c([C@H]2CC[C@H](CNC(=O)c3cccnc3)CC2)n1 | < 70 |
| CCn1c2ccccc2c2cc(NC(C)C(=O)N3CCNC3=O)ccc21 (configuration not stated) | < 70 |
| CN(C)S(=O)(=O)c1cccc(C(=O)Nc2cnc3ccccc3c2)c1 | < 70 |
| CC(=O)N(CCN(C(=O)c1ccc(F)cc1)c1ccccc1)c1ccccc1 | < 70 |
| CCOc1ccc(CN2CCN(CC(O)COc3ccc(OCC(O)CN4CCN(Cc5ccc(OCC)cc5)CC4)cc3)CC2)cc1 (configuration not stated) | < 70 |
| CN(C)Cc1ccc(CNc2ncnc3scc(-c4ccccc4)c23)cc1 | < 70 |
| Cc1cc(N)c(N)cc1C | < 70 |
| CCN(CC)S(=O)(=O)c1ccc(-c2csc(Nc3ccc(C)c(C)c3)n2)cc1 | < 70 |
| CC1(C)Cc2c(c(N3CCOCC3)nc3snc(Br)c23)CO1 | < 70 |
| COc1cccn2c(C(=O)N3CCCCC3)c(C(F)(F)F)nc12 | < 70 |
| Clc1ccc2[nH]c3c(NCCCN4CCOCC4)ncnc3c2c1 | < 70 |
| CNC(=O)c1ccc(CN(C2CC2)S(=O)(=O)c2cc(C)ccc2C)cc1 | < 70 |

| SMILES | growth inhibition at single dose [%] |
| --- | --- |
| Cc1nc(NCCNc2cnccn2)c2c(-c3cccs3)csc2n1 | < 70 |
| Cc1nnc(NC(=O)c2cn(-c3ccccc3)nc2-c2ccccc2C)o1 | < 70 |
| Nc1nc(N)c2c3c(sc2n1)CN(Cc1ccccc1)CC3 | < 70 |
| CCOc1cc(CNC(C)C(O)c2ccccc2)cc(Cl)c1OCC (configuration not stated) | < 70 |
| Cn1nnnc1SCC(=O)Nc1ccc(C(=O)Nc2ncccc2O)cc1 | < 70 |
| CCCn1nc(C(=O)Nc2ccccc2N2CCc3ccccc3C2)ccc1=O | < 70 |
| CCOC(=O)c1c(C)n(-c2ccc(Cl)cc2)c2ccc(OC(=O)C=Cc3ccccc3)cc12 | < 70 |
| CC(C)(C)c1ccc(C(=O)Nc2c3c(nn2-c2cccc(Cl)c2)CSC3)cc1 | < 70 |
| Cc1c(C)n(CC(O)CNC2CCCCC2C)c2ccccc12 (configuration not stated) | < 70 |
| CC(Nc1ncnc2sccc12)c1ccc(F)cc1 (configuration not stated) | < 70 |
| O=C(Cn1ncc(Cl)c(Cl)c1=O)Nc1cc(S(=O)(=O)N2CCOCC2)ccc1Cl | < 70 |
| O=C1[C@@H](Oc2ccccc2)[C@@H](c2ccc(Cl)cc2)N1CCn1cnc2c(NCc3ccccc3)ncnc21 | < 70 |
| O=c1c2ccccc2cnn1-c1nc2ccccc2[nH]1 | < 70 |
| COc1ccc(-c2nonc2NC(=O)c2cccc(C)c2)cc1OC | < 70 |
| CNc1nc(SCCS(=O)(=O)c2ccccc2)nc2ccccc12 | < 70 |
| c1ccc(C[C@@H]2CN(c3nccc(Oc4ccc(-n5ccnc5)cc4)n3)CCN2)cc1 | < 70 |
| O=C(Nc1ccnc(-c2cccnc2)n1)c1cc(C(F)(F)F)cc(C(F)(F)F)c1 | < 70 |
| COc1cccc(OC)c1C(=O)Nc1ccc(Cl)c(-c2nc3ccccc3s2)c1 | < 70 |
